Our source for the inhibition values is patent publication US12528802B2, “Heterocyclic compound” (Takeda Pharmaceutical Company Limited, priority 2019, dated 2026).

The target in the experiment is T1, glucosylceramide synthase (Homo sapiens, UniProt Q16739).
T1 construct: made in house; host or cells: Expi293F cells (transient expression, pcDNA3.3-TOPO vector); microsome fraction used as enzyme source
T1 sequence (Q16739 1-394): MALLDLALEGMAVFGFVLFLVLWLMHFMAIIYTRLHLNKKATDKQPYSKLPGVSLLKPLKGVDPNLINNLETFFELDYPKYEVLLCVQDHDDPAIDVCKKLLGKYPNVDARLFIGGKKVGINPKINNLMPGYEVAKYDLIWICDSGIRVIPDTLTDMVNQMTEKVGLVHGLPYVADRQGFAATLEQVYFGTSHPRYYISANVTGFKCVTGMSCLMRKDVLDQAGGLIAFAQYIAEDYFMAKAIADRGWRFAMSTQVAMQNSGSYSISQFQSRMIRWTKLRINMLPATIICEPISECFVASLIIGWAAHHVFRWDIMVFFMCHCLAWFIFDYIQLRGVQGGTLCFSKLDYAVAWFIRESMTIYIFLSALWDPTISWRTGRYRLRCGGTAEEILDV
Briefly: Glucosylceramide synthase (GCS) enzyme assay, microsome fraction, C8 glucosylceramide quantified by Rapidfire MS/MS. The class given is biochemical. The settings on record: test compound 10 μM; 1.7 μM UDP-glucose, 3 μM C8 ceramide; room temperature 60 min; read-out: GCS enzyme inhibitory rate at 10 μM (%) (% of control). Put shortly: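 Test compound, 10 μM final, was run against human GCS from transfected Expi293F microsome fractions, using substrate solution of 6 μM C8 ceramide (in DOPC liposomes) plus 3.4 μM UDP-glucose, pH 7.5 Tris buffer, 60 min, room temperature. Product C8 glucosylceramide measured by Rapidfire MS/MS against an internal standard, % inhibition referenced to no-enzyme and DMSO wells.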
For `O=C1c2ccnc(-c3ccccc3OCC(F)(F)F)c2CN1c1ccc(C2(O)CC(F)(F)C2)nc1` [Example 316, 2-[6-(3,3-difluoro-1-hydroxycyclobutyl)pyridin-3-yl]-4-[2-(2,2,2-trifluoroethoxy)phenyl]-2,3-dihydro-1H-pyrrolo[3,4-c]pyridin-1-one], the inhibition at 10 µM amounted to 99%.
Turning to `Cn1nc(N2Cc3c(ccnc3-c3ccc(F)cc3OCC(F)(F)F)C2=O)cc1C#N` [Example 318, 3-{4-[4-fluoro-2-(2,2,2-trifluoroethoxy)phenyl]-1-oxo-1,3-dihydro-2H-pyrrolo [3,4-c]pyridin-2-yl}-1-methyl-1H-pyrazole-5-carbonitrile], the inhibition at 10 µM worked out at 52%.
Turning to `CC(=O)c1ccc(N2Cc3c(ccnc3-c3c(F)cccc3OCC(F)(F)F)C2=O)cc1` [Example 319, 2-(4-acetylphenyl)-4-[2-fluoro-6-(2,2,2-trifluoroethoxy)phenyl]-2,3-dihydro-1H-pyrrolo[3,4-c]pyridin-1-one], the inhibition at 10 µM is 97%.
Then `CC(C)(O)c1ccc(N2Cc3c(ccnc3-c3c(F)cc(F)cc3OCC(F)(F)F)C2=O)cc1` [Example 320, 4-[2,4-difluoro-6-(2,2,2-trifluoroethoxy)phenyl]-2-[4-(2-hydroxypropan-2-yl)phenyl]-2,3-dihydro-1H-pyrrolo[3,4-c]pyridin-1-one], with 99%; and `Cn1cc2c(c(-c3ccccc3OCC(F)(F)F)c1=O)CN(c1ccc(C(C)(C)O)cc1)C2=O` [Example 321, 2-[4-(2-hydroxypropan-2-yl)phenyl]-5-methyl-7-[2-(2,2,2-trifluoroethoxy)phenyl]-1H-pyrrolo[3,4-c]pyridine-3,6(2H,5H)-dione], with 100%; and `CC(C)(O)c1ccc(N2Cc3c(ccnc3-c3cc(F)c(F)cc3OCC(F)(F)F)C2=O)cc1` [Example 322, 4-[4,5-difluoro-2-(2,2,2-trifluoroethoxy)phenyl]-2-[4-(2-hydroxypropan-2-yl)phenyl]-2,3-dihydro-1H-pyrrolo [3,4-c]pyridin-1-one], with 95%.
In the case of `CC(C)(O)c1ccc(N2Cc3c(ccnc3-c3cc(F)ccc3OCC(F)(F)F)C2=O)cc1` [Example 323, 4-[5-fluoro-2-(2,2,2-trifluoroethoxy)phenyl]-2-[4-(2-hydroxypropan-2-yl)phenyl]-2,3-dihydro-1H-pyrrolo[3,4-c]pyridin-1-one], the inhibition at 10 µM stood at 99%.
Then `Cc1cc2c(c(-c3ccccc3OCC(F)(F)F)n1)CN(c1ccc(C(C)(C)O)nc1)C2=O` [Example 326, 2-[6-(2-hydroxypropan-2-yl)pyridin-3-yl]-6-methyl-4-[2-(2,2,2-trifluoroethoxy)phenyl]-2,3-dihydro-1H-pyrrolo[3,4-c]pyridin-1-one], with 99%; and `CC(C)(O)c1ccc(N2Cc3c(cc(C(F)F)nc3-c3ccccc3OCC(F)(F)F)C2=O)cc1` [Example 327, 6-(difluoromethyl)-2-[4-(2-hydroxypropan-2-yl)phenyl]-4-[2-(2,2,2-trifluoroethoxy)phenyl]-2,3-dihydro-1H-pyrrolo[3,4-c]pyridin-1-one], with 100%; and `CC(C)(O)c1ccc(N2Cc3c(cc(C(F)F)nc3-c3ccccc3OCC(F)(F)F)C2=O)cn1` [Example 328, 6-(difluoromethyl)-2-[6-(2-hydroxypropan-2-yl)pyridin-3-yl]-4-[2-(2,2,2-trifluoroethoxy)phenyl]-2,3-dihydro-1H-pyrrolo[3,4-c]pyridin-1-one], with 100%.
Then `COCc1cc2c(c(-c3ccccc3OCC(F)(F)F)n1)CN(c1ccc(C(C)(C)O)cc1)C2=O` [Example 330, 2-[4-(2-hydroxypropan-2-yl)phenyl]-6-(methoxymethyl)-4-[2-(2,2,2-trifluoroethoxy)phenyl]-2,3-dihydro-1H-pyrrolo[3,4-c]pyridin-1-one], with 100%; and `COC(=O)c1ccc(N2CC3=C(OC[C@H](C)N=C3c3ccccc3OCC(F)(F)F)C2=O)cc1` [Example 331, methyl 4-{(3S)-3-methyl-8-oxo-5-[2-(2,2,2-trifluoroethoxy)phenyl]-2,3,6,8-tetrahydro-7H-pyrrolo [3,4-f][1,4]oxazepin-7-yl}benzoate], with 91%.
For `COC(=O)c1ccc(N2CC3=C(OC[C@@H](C)N=C3c3ccccc3OCC(F)(F)F)C2=O)cc1` [Example 333, methyl 4-{(3R)-3-methyl-8-oxo-5-[2-(2,2,2-trifluoroethoxy)phenyl]-2,3,6,8-tetrahydro-7H-pyrrolo [3,4-f][1,4]oxazepin-7-yl}benzoate] the value was 97%; for `CC(=O)c1ccc(N2CC3=C(OC[C@H](C)N=C3c3ccccc3OCC(F)(F)F)C2=O)cc1` [Example 334, (3S)-7-(4-acetylphenyl)-3-methyl-5-[2-(2,2,2-trifluoroethoxy)phenyl]-2,3,6,7-tetrahydro-8H-pyrrolo [3,4-f][1,4]oxazepin-8-one], 88%; for `COC(=O)c1ccc(N2CC3=C(OCCN=C3c3ccccc3OCC(F)(F)F)C2=O)cc1` [Example 335, methyl 4-{8-oxo-5-[2-(2,2,2-trifluoroethoxy)phenyl]-2,3,6,8-tetrahydro-7H-pyrrolo[3,4-f] [1,4]oxazepin-7-yl}benzoate], 95%.
`CC(C)(O)c1ccc(N2Cc3c(cc(Br)c(=O)n3-c3ccccc3OCC(F)(F)F)C2=O)cc1` [Example 336, 3-bromo-6-[4-(2-hydroxypropan-2-yl)phenyl]-1-[2-(2,2,2-trifluoroethoxy)phenyl]-6,7-dihydro-1H-pyrrolo[3,4-b]pyridine-2,5-dione]: the inhibition at 10 µM stood at 98%.
Then `Cc1cc2c(n(-c3ccccc3OCC(F)(F)F)c1=O)CN(c1ccc(C(C)(C)O)cc1)C2=O` [Example 337, 6-[4-(2-hydroxypropan-2-yl)phenyl]-3-methyl-1-[2-(2,2,2-trifluoroethoxy)phenyl]-6,7-dihydro-1H-pyrrolo[3,4-b]pyridine-2,5-dione], with 98%; and `Cc1cc2c(c(-c3ccccc3OCC(F)(F)F)n1)CN(c1ccc(C(F)(F)CO)cc1)C2=O` [Example 338, 2-[4-(1,1-difluoro-2-hydroxyethyl)phenyl]-6-methyl-4-[2-(2,2,2-trifluoroethoxy)phenyl]-2,3-dihydro-1H-pyrrolo [3,4-c]pyridin-1-one], with 100%; and `CC(C)(O)C(F)(F)c1ccc(N2Cc3c(ccnc3-c3ccccc3OCC(F)F)C2=O)cc1` [Example 339, 4-[2-(2,2-difluoroethoxy)phenyl]-2-[4-(1,1-difluoro-2-hydroxy-2-methylpropyl)phenyl]-2,3-dihydro-1H-pyrrolo[3,4-c]pyridin-1-one], with 99%.
For `CC(C)(O)C(F)(F)c1ccc(N2Cc3c(ccnc3-c3ccccc3OCC(F)(F)F)C2=O)cc1` [Example 340, 2-[4-(1,1-difluoro-2-hydroxy-2-methylpropyl)phenyl]-4-[2-(2,2,2-trifluoroethoxy)phenyl]-2,3-dihydro-1H-pyrrolo[3,4-c]pyridin-1-one] the value was 99%; for `Cc1cc2c(c(-c3ccccc3OCC(F)(F)F)n1)CN(c1ccc(C(F)(F)C(C)(C)O)cc1)C2=O` [Example 342, 2-[4-(1,1-difluoro-2-hydroxy-2-methylpropyl)phenyl]-6-methyl-4-[2-(2,2,2-trifluoroethoxy)phenyl]-2,3-dihydro-1H-pyrrolo [3,4-c]pyridin-1-one], 100%.
For `CC(C)(O)c1cc2c(c(-c3ccccc3OCC(F)(F)F)n1)CN(c1ccc(OCC(F)(F)F)cc1)C2=O` [Example 343, 6-(2-hydroxypropan-2-yl)-4-[2-(2,2,2-trifluoroethoxy)phenyl]-2-[4-(2,2,2-trifluoroethoxy)phenyl]-2,3-dihydro-1H-pyrrolo[3,4-c]pyridin-1-one] the value was 100%.
In the case of `O=C1c2ccnc(-c3ccccc3OCC(F)(F)F)c2CN1c1ccc(O)cc1` [Example 347, 2-(4-hydroxyphenyl)-4-[2-(2,2,2-trifluoroethoxy)phenyl]-2,3-dihydro-1H-pyrrolo[3,4-c]pyridin-1-one], the inhibition at 10 µM amounted to 76%.
On to `Cc1cc2c(c(-c3ccccc3OCC(F)(F)F)n1)CN(c1ccc(C3(O)CCOCC3)cc1)C2=O` [Example 348, 2-[4-(4-hydroxyoxan-4-yl)phenyl]-6-methyl-4-[2-(2,2,2-trifluoroethoxy)phenyl]-2,3-dihydro-1H-pyrrolo[3,4-c] pyridin-1-one], for which the inhibition at 10 µM is 100%.
Then `C#CCCC1(CCOc2ccc(N3Cc4c(ccnc4-c4ccccc4OCC(F)(F)F)C3=O)cc2)N=N1` [Example 349, 2-(4-{2-[3-(but-3-yn-1-yl)-3H-diaziren-3-yl]ethoxy}phenyl)-4-[2-(2,2,2-trifluoroethoxy)phenyl]-2,3-dihydro-1H-pyrrolo[3,4-c]pyridin-1-one], with 100%.
For `Cn1cc2c(c(-c3ccccc3OCC(F)(F)F)c1=O)CN(c1ccc(OCC(C)(C)O)cc1)C2=O` [Example 350, 2-[4-(2-hydroxy-2-methylpropoxy)phenyl]-5-methyl-7-[2-(2,2,2-trifluoroethoxy)phenyl]-1H-pyrrolo[3,4-c]pyridine-3,6(2H,5H)-dione] the value was 100%.
